Entries after “also recorded” stand apart in the source; their conditions may differ. Where two headings read alike, the source gives them in different places. Blank lines part the entries; values can stand above or below the molecule they belong to. Where a SMILES comes first, the peptide text is derived from it. [ ]: non-standard residue; d: D form.
Experiments:
endothelin receptor ETA = biological target: T1, endothelin receptor ETA (Oryctolagus cuniculus, UniProt A5A8K3); assay type: binding; conditions: [125I]-ET-1 25 pM, rabbit renal artery vascular smooth muscle cells; read-out: ERBA-A IC50
T1 sequence (A5A8K3 21-427): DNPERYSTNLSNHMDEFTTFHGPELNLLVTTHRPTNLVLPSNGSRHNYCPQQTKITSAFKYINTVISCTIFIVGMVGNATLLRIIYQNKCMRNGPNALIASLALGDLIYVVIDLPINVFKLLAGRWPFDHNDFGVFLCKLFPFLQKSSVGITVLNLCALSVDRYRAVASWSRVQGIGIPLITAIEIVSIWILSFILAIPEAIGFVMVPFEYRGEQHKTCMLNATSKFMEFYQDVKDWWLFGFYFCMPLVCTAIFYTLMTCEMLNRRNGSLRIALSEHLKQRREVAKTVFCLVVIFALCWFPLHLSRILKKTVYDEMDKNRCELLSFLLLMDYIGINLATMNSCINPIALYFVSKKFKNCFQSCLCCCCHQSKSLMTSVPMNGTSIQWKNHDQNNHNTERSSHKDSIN
Text: (§1) The compounds of Formula I are valuable antagonists of endothelin.

endothelin receptor ETB = experiment: Endothelin receptor binding assay-B (ERBA-B), [125I]-ET-1 binding in rat cerebellar membranes; conditions: [125I]-ET-1 25 pM, rat cerebellar membranes (also modified with human ETB in CHO-K1)
Text: as §1
Count filters for radioactivity in gamma counter.
The above process has also been modified by using human recombinant CHO-K1 cells.
The tissue used for human ETB was recombinant human ETB receptor expressed in CHO-K1 cells (chinese hamster ovary cells). The gene for human ETB receptor was cloned and inserted into the pRc-CMW expression vector, then transfected into CHO-K1 cells by electroporation. For binding assays, membranes (0.7 mg protein) of CHO-K1 cells expressing recombinant human ETB receptor were used.

[1] = system: early cerebral vasospasm following SAH; conditions: rabbit; cited from earlier work
[2] = system: early cerebral vasospasm following SAH; conditions: cited from earlier work; for early cerebral vasospasm following SAH: rat
ETA = conditions: mouse endotoxic shock; cited from earlier work
basilar artery = conditions: after 7 days, canine two-hemorrhage model of SAH; cited from earlier work

IC50 (endothelin receptor ETA): > 0.1 µM
Molecule: COc1ccc(CC2=C(c3ccc4c(c3)OCO4)C(=O)OC2c2cc(OC)c(OC)c(OC)c2)cc1 (centres unmarked) [Example 3, 3-Benzo[1,3]dioxol-5-yl-4-(4-methoxybenzyl)-5-(3,4,5-trimethoxyphenyl)-5H-furan-2-one]

IC50 (endothelin receptor ETA): 0.2 µM
Molecule: COc1ccc(C2OC(=O)C(c3ccc4c(c3)OCO4)=C2Cc2ccc(OC)c(C)c2)cc1 (centres unmarked) [Example 4, 3-Benzo[1,3]dioxol-5-yl-4-(4-methoxy-3-methylbenzyl)-5-(4-methoxyphenyl)-5H-furan-2-one]

IC50 (endothelin receptor ETB): > 2.5 µM
IC50 (endothelin receptor ETA): 0.7 µM
Molecule: COc1ccc(C2OC(=O)C(c3ccc4c(c3)OCO4)=C2Cc2ccccc2)cc1 (centres unmarked) [Example 1, 3-Benzo[1,3]dioxol-5-yl-4-benzyl-5-(4-methoxyphenyl)-5H-furan-2-one]

IC50 (endothelin receptor ETA): 0.03 µM
Molecule: COc1ccc(C2OC(=O)C(c3ccc4c(c3)OCO4)=C2Cc2cc(OC)c(OC)c(OC)c2)cc1 (centres unmarked) [Example 2, 3-Benzo[1,3]dioxol-5-yl-5-(4-methoxyphenyl)-4-(3,4,5-trimethoxybenzyl)-5H-furan-2-one]

Molecule: CC(C)C[C@@H]1NC(=O)[C@@H](C(C)C)NC(=O)[C@@H]2CCCN2C(=O)[C@@H](CC(=O)O)NC(=O)[C@@H](Cc2c[nH]c3ccccc23)NC1=O [BQ-123] (cyclo(L[dW][dD]P[dV]))
early cerebral vasospasm following SAH [1]: prevents early cerebral vasospasm
early cerebral vasospasm following SAH [2]: prevent early cerebral vasospasm following subarachnoid hemorrhage; also recorded: prevents early cerebral vasospasm
survival rate (ETA): significantly increased

Molecule: COc1cccc(Oc2c(NS(=O)(=O)c3ccc(C(C)(C)C)cc3)ncnc2OCCO)c1 [Ro 46-2005]
systemic arterial blood pressure ([2]; rat SAH): no significant effect
early cerebral vasospasm following SAH [2]: prevent early cerebral vasospasm

Molecule: FR 139317
vasoconstriction of the basilar artery (basilar artery): significantly inhibited
